Values of other authors, collected in patent US20180305742A1, “USE OF ESTROGENIC COMPOUNDS TO […] BACTERIAL COMPOSITION OF VAGINAL COMMUNITIES” (University of Idaho, priority 2017, published 2018).

Test system: estrogen receptor

Which “potency relative to estradiol” value (as potent as estradiol) does the source give for C[C@]12CC[C@@H]3c4ccc(O)cc4CC[C@H]3[C@@H]1C[C@@H](O)[C@@H]2O [Estriol, estriol] here?
The value was 8%.

What about the “potency relative to estrone” value (as potent as estrone) of the same molecule?
Its value is 14%.
